Experimental data taken from patent US20090104119A1, “Dendrimer Based Compositions And Methods Of Using The Same” (priority 2004, published 2009).

Assays:
[1] = tested on: low FAR-expressing KB cells; assay: Cellular uptake/binding of dendrimers in low-FAR KB cells, flow cytometry; format: cell-based, human
Method: Cell culture and treatment.
(§1) Flow Cytometry and Confocal Microscopy. The standard fluorescence of the dendrimer solutions was quantified using a Beckman spectrofluorimeter. For flow cytometric analysis of the uptake of the targeted polymer, cells were trypsinized and suspended in PBS containing 0.1% bovine serum albumin (PBSB) and analyzed using a Becton Dickinson FACScan analyzer. The FL1-fluorescence of 10,000 cells was measured and the mean fluorescence of gated viable cells was quantified. Confocal microscopic analysis was performed in cells plated on a glass cover-slip, using a Carl Ziess confocal microscope. Fluorescence and differential interference contrast (DIC) images were collected simultaneously using an argon laser, using the appropriate filters for FITC.
(§2) The effect of free FA on the uptake of the dendrimers was tested in KB cells that express both high and low FAR. The binding of the conjugates to the low FAR-expressing KB cells was 30% of that of the high FAR-expressing cells for both the G5-FITC-FA and G5-FITC-FA-MTX (See, for e.g., FIG. 19, left panel). […] The binding and internalization of the dendrimers to KB cells was assessed by confocal microscopy. KB cells were incubated with 250 nM of the indicated dendrimers for 24 hours and confocal images were taken. Conjugates containing the targeting molecule FA internalized into KB cells within 24 h (See, e.g., FIG. 20).
Time course and dose dependent inhibition of cell growth.

KB cells [2] = assay: Binding and internalization of dendrimers by confocal microscopy; format: cell-based, human; conditions: 250 nM, 24 hours, compared to control conjugates
Method: as §1, §2

KB cells [3] = assay: Inhibition of cell growth by total cell protein
Method: Cell culture and treatment. KB cells were maintained in folate-free medium containing 10% serum (See, e.g., Quintana et al, Pharm. Res. 19, 1310 (2002)) to provide extracellular FA similar to that found in human serum. Cells were plated in 12-well plates for uptake studies, in 24-well plates for cell growth analysis, and in 96-well plates for XTT assay. Cells were rinsed with FA-free medium containing dialyzed serum and incubated at 37° C. with dendrimer-drug conjugates for the indicated time periods and concentrations. KB cells were also maintained in RPMI medium containing 2 μM FA to obtain cells which express low FAR.
Evaluation of dendrimer cytotoxicity. Cell growth was determined by assay of the total protein in lysates of treated cells using a bicinchoninic acid reagent (PIERCE, and by XTT assay, using a kit from Roche.
Time course and dose dependent inhibition of cell growth. Previous studies have shown that MTX-induced cytotoxicity is detectable in vitro only if the medium is completely deprived of FA (See, e.g., Sobrero & Bertino, Int. J. Cell Cloning 4, 51 (1986)). The effect of the trifunctional dendrimers on cell growth was tested in cells incubated in a FA-deficient medium. Cells were treated with 300 nM conjugates (equivalent of 1500 nM MTX) or 1500 nM free MTX for 1-4 days, and cell proliferation was determined by estimation of cellular protein content. Cells were treated for 2 days with different concentrations of the conjugates or free MTX (the conjugate concentration is given as MTX equivalents, with 5 MTX per dendrimer molecule). KB cells which express high and low FAR were incubated with 30 nM of the dendrimers for 1 hr at 37° C., rinsed, and the fluorescence of cells was determined by flow cytometric analysis (See. e.g., FIG. 21, left panel).
KB cells were treated with 150 or 500 nM MTX in the presence or absence of equimolar concentrations of free FA for 24 h. […] The cells were rinsed to remove the drugs and incubated with fresh medium for an additional 6 d, and total cell protein was determined.

[4] = Stability of dendrimer in cell culture medium (MTX release; ultrafiltration, XTT readout); format: physicochemical
Method: The stability of the dendrimer was tested in cell culture medium to check if MTX was released from the dendrimer prior to its entry into the cells. The G5-FITC-FA-MTX was incubated with cell culture medium for 1, 2, 4 and 24 h, and the incubation medium was filtered using a 10,000-MW cutoff ultrafiltration device. The effect of the retentate and the filtrate on the growth of the KB cells was tested. G5-FITC-FA-MTX was incubated with medium at 2 μM concentration for 24 h. The incubation medium was filtered through a Centricon 10K-MW cutoff filter. The retentate (adjusted to pre-filtration volume) and the filtrate were incubated with KB cells (at 200 nM conjugate, as determined from the concentration of the pre-filtration sample) for 2 days and the XTT assay was performed. Similar results were obtained for the retentate and filtrate obtained from the medium that had been pre-incubated with the dendrimers for 1, 2, and 4 hours. […] There was a slow release of the MTX after 24 h, reaching a maximum of 40-50% release in 1 week.

[5] = Toxicity of dendrimer conjugates and free methotrexate in mice (body weight, histopathology); format: in vivo; conditions: occasional periportal lymphocytes, single-cell necrosis
Method: Delivery of targeted nanoparticle therapeutic. Twice weekly, SCID mice with s.c. KB xenografts, starting on day 4 after tumor implantation, received via the tail vein an injection of either targeted or nontargeted conjugate containing methotrexate, a conjugate without methotrexate, free methotrexate, or saline as a control. The compounds were delivered in a 0.2 mL volume of saline per 20 g of mouse. The single dose of methotrexate delivered each time equaled 0.33 mg/kg. The higher doses of 1.67 and 3.33 mg/kg free methotrexate were also tested. The conjugates were delivered at equimolar concentration of methotrexate calculated based on the number of methotrexate molecules present in a nanoparticle. The conjugate without methotrexate was delivered at equimolar concentration of dendrimer. In the initial trial, six groups of mice with five mice in each group received up to 15 injections. In the follow-up trial, mice received up to 28 injections dependent on their survival. The body weights of the mice were monitored throughout the experiment as an indication of adverse effects of the drug. Histopathology of multiple organs was done at the termination of each trial and each time mouse had to be euthanized due to toxic effects or tumor burden. Tissues from lung, heart, liver, pancreas, spleen, kidney, and tumor were analyzed. Additionally, cells were isolated from tumors, stained with targeted fluorescein-labeled conjugate, and tested for the presence of folic acid receptors using flow cytometer.
Toxicity of dendrimer conjugates. […] No gross toxicity, either acutely or chronically up to 99 days, was observed regardless of whether the dendrimer conjugate contained methotrexate. The weight was monitored throughout the experiment and no loss of weight was observed; in fact, the animals gained weight. At each time point, a gross examination and histopathology of the liver, spleen, kidney, lung, and heart were done. No morphologic abnormalities were observed on the histopathology examination.
The remaining experimental groups had very uniform body weight fluctuations nonindicative of toxicity when compared with control groups with saline or conjugate without methotrexate.

[6] = 2 μM, up to 24 h in medium, 10K-MW cutoff filter, KB cells 2 days, XTT

Substance: G5-(Ac)82-(FITC)5-(FA)5-MTX5 [G5-FITC-FA-MTX]
- binding to low FAR-expressing KB cells relative to high FAR-expressing cells [1]: 30%
- effect of free FA on uptake, low-FAR expressing cells ([1]; 50 μM FA, dendrimer 30 nM): completely blocked
- cell morphology indicating cytotoxicity (KB cells [2]): less adherent and rounded up
- cytotoxicity compared with equimolar combinations of free FA and MTX (KB cells [3]; 30 and 100 nM conjugate (150 and 500 nM MTX), 24 h then 6 d): similar
- inhibition of cell growth (FIGS. 21 and 22) (KB cells [3]; FA-deficient medium, 1-4 days, different concentrations): inhibited cell growth in a time- and dose-dependent fashion
- cytotoxicity of filtrate after incubation in medium [4, 6]: failed to show any cytotoxicity
- cytotoxicity of retentate after incubation in medium [4, 6]: cytotoxic
- release of MTX, maximum ([4]; slow release after 24 h, in 1 week): 40-50%
- liver slides versus saline controls [5]: did not differ from that of control animals injected with saline
